The values below come from PMC3062907 (Advanced synthesis & catalysis, 2008).

In series [1] the test system is Rb (retinoblastoma)-negative cells. The following applies: cells resistant to 17-AAG; ref x; cited from earlier work.
For series [2] the following is noted: ref ix; cited from earlier work.
The conditions of series [3]: in vivo settings; earlier work of the authors, no reference given; cited from earlier work.
For series [4], the system named is human colon carcinoma (HCT-116). The experiment in a line: In vivo study in mice implanted with human colon carcinoma. The following applies: mice implanted with HCT-116; 75 mg/kg, QDx7; preliminary.
Another series deals with Hsp90. Put plainly: Hsp90 inhibition. The class given is biochemical. The following applies: read-out: Hsp90 inhibition (IC50); in vitro; preliminary evaluation.
Series [5] deals with MCF-7 breast cancer cells. The following applies: read-out: inhibitory activity against MCF-7 breast cancer cells (IC50); ref xiii; cited from earlier work.

SMILES strings stand for the structures. pIC50: −log10 of the molar value.

Consider `C[C@@H]1C[C@H]2O[C@@H]2/C=C\C=C\C(=O)Cc2c(Cl)c(O)cc(O)c2C(=O)O1` [Radicicol (1), radicicol], for which, in series [1], the “cytotoxicity against Rb-negative cells” value is “potent cytotoxicity”. Besides, the “hepatotoxicity compared with 17-AAG” value in series [2] is listed as “significantly less hepatotoxic than 17-AAG (3)”. The in vivo activity result in series [3] is “inactive”.

As a reminder, the pIC50 is −log10 of the IC50, conventionally taken in molar units. As to `C[C@@H]1C[C@H]2C[C@@H]2/C=C\C=C\C(=O)Cc2c(Cl)c(O)cc(O)c2C(=O)O1` [cycloproparadicicol (4), cycloproparadicicol], in series [4], the “tumor cell growth suppression” value is on record as 68%. For the same molecule, the pIC50 in the series on Hsp90 is 6.80; in series [5], 7.31.

In the case of `C=CCNC1=C2C[C@@H](C)C[C@H](OC)[C@H](O)[C@@H](C)/C=C(\C)[C@H](OC(N)=O)[C@@H](OC)/C=C\C=C(/C)C(=O)NC(=CC1=O)C2=O` [17-AAG (3), 17-AAG], the pIC50 in the series on Hsp90 was […].
